The values below come from US12612388B2, “Receptor-interacting protein 1 inhibitors including piperazine heterocyclic amide ureas” (SIRONAX LTD., priority 2020, dated 2026).

One assay concerns HT-29 cells. Briefly: Cellular RIP1 inhibitory activity: necroptosis of HT-29 cells induced by TNF-α/SMAC mimetic/zVAD-FMK, CellTiter-Glo viability. To be noted: Homo sapiens, HT-29, 20 h, read-out: EC50 (Cell activity; Necrosis or Necroptosis Inhibitory Activity). Format: cell-based. A digest of the protocol:
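HT-29 cells (~5,000/well) in FBS-free McCoy's 5A were driven into necroptosis with TNF-α (10 ng/ml), SMAC mimetic (6 μM) and zVAD-FMK (10 μM) alongside 10-point 1:3 compound dilutions for 20 h at 37 °C. Viability measured by CellTiter-Glo luminescence; geometric mean EC50 from duplicate dose-responses.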
In the case of `CCNC(=O)c1ccnc(N2CCN(C(=O)N3N=CC[C@H]3c3cc(F)cc(F)c3)CC2)n1` [Compound 35, (S)-2-(4-(5-(3,5-difluorophenyl)-4,5-dihydro-1H-pyrazole-1-carbonyl)piperazin-1-yl)-N-ethylpyrimidine-4-carboxamide], the EC50 is 0.1 to 100 nM.

Staying with this assay, now noted: Homo sapiens; HT-29 cells; TNF-α 10 ng/ml, SMAC mimetic 6 μM, zVAD-FMK 10 μM; 20 hours; geometric mean, 10 points, duplicates; read-out: EC50 (Cell activity; Necrosis or Necroptosis Inhibitory Activity).
For the compound `NC(=O)c1ccnc(N2CCN(C(=O)N3N=CC[C@H]3c3ccccc3)CC2)n1` [Compound 41, (S)-2-(4-(5-phenyl-4,5-dihydro-1H-pyrazole-1-carbonyl)piperazin-1-yl)pyrimidine-4-carboxamide], the EC50 lay within 0.1 to 100 nM.

Turning to `COC1CN(C(=O)c2nc(N3CCN(C(=O)N4N=CC[C@H]4c4cc(F)cc(F)c4)CC3)ncc2F)C1` [Compound 21, (S)-(5-(3,5-difluorophenyl)-4,5-dihydro-1H-pyrazol-1-yl)(4-(5-fluoro-4-(3-methoxyazetidine-1-carbonyl)pyrimidin-2-yl)piperazin-1-yl)methanone], the concentration for a half-maximal effect (EC50) was 0.1 to 100 nM.

Take `COC1CN(C(=O)c2nc(N3CCN(C(=O)N4N=CC[C@H]4c4cncc(C#N)c4)CC3)ncc2F)C1` [Compound 53, (S)-5-(1-(4-(5-fluoro-4-(3-methoxyazetidine-1-carbonyl)pyrimidin-2-yl)piperazine-1-carbonyl)-4,5-dihydro-1H-pyrazol-5-yl)nicotinonitrile]: the concentration giving a half-maximal response (EC50) is 0.1 to 100 nM.

For the compound `O=C(c1nc(N2CCN(C(=O)N3N=CC[C@H]3c3cc(F)cc(F)c3)CC2)ncc1F)N1CC=CC1` [Compound 61, (S)-(5-(3,5-difluorophenyl)-4,5-dihydro-1H-pyrazol-1-yl)(4-(4-(2,5-dihydro-1H-pyrrole-1-carbonyl)-5-fluoropyrimidin-2-yl)piperazin-1-yl)methanone], the EC50 is 0.1 to 100 nM.

For the compound `NC(=O)c1cc(N2CCN(C(=O)N3N=CC[C@H]3c3cc(F)cc(F)c3)CC2)ncn1` [Compound 40, (S)-6-(4-(5-(3,5-difluorophenyl)-4,5-dihydro-1H-pyrazole-1-carbonyl)piperazin-1-yl)pyrimidine-4-carboxamide], the concentration for a half-maximal effect (EC50) is 0.1 to 100 nM.

For the compound `CC1(O)CN(C(=O)c2nc(N3CCN(C(=O)N4N=CC[C@H]4c4cc(F)cc(F)c4)CC3)ncc2F)C1` [Compound 50, (S)-(5-(3,5-difluorophenyl)-4,5-dihydro-1H-pyrazol-1-yl)(4-(5-fluoro-4-(3-hydroxy-3-methylazetidine-1-carbonyl)pyrimidin-2-yl)piperazin-1-yl)methanone], the EC50 lay within 0.1 to 100 nM.

`CCN(C)C(=O)c1nc(N2CCN(C(=O)N3N=CC[C@H]3c3cc(F)cc(F)c3)CC2)ncc1F` [Compound 6, (S)-2-(4-(5-(3,5-difluorophenyl)-4,5-dihydro-1H-pyrazole-1-carbonyl)piperazin-1-yl)-N-ethyl-5-fluoro-N-methylpyrimidine-4-carboxamide]: the half-maximal effective concentration (EC50) was 0.1 to 100 nM.

Take `COC(=O)c1ccnc(N2CCN(C(=O)N3N=CC[C@H]3c3cc(F)cc(F)c3)CC2)n1` [Compound 49, methyl (S)-2-(4-(5-(3,5-difluorophenyl)-4,5-dihydro-1H-pyrazole-1-carbonyl)piperazin-1-yl)pyrimidine-4-carboxylate]: the EC50 lay in the range of 0.1 to 100 nM.

Consider `CN(C)[C@H]1CCN(C(=O)c2nc(N3CCN(C(=O)N4N=CC[C@H]4c4cc(F)cc(F)c4)CC3)ncc2F)C1` [Compound 31, ((S)-5-(3,5-difluorophenyl)-4,5-dihydro-1H-pyrazol-1-yl)(4-(4-((S)-3-(dimethylamino)pyrrolidine-1-carbonyl)-5-fluoropyrimidin-2-yl)piperazin-1-yl)methanone], for which the EC50 fell in the range of 0.1 to 100 nM.

In the case of `O=C(O)c1ccnc(N2CCN(C(=O)N3N=CC[C@H]3c3cc(F)cc(F)c3)CC2)n1` [Compound 44, (S)-2-(4-(5-(3,5-difluorophenyl)-4,5-dihydro-1H-pyrazole-1-carbonyl)piperazin-1-yl)pyrimidine-4-carboxylic acid], the 50% effective concentration (EC50) lay within 1000 to 10000 nM.

As to `NC(=O)c1nc(N2CCN(C(=O)N3N=CC[C@H]3c3cc(F)cc(F)c3)CC2)ncc1F` [Compound 48, (S)-2-(4-(5-(3,5-difluorophenyl)-4,5-dihydro-1H-pyrazole-1-carbonyl)piperazin-1-yl)-5-fluoropyrimidine-4-carboxamide], the EC50 was 0.1 to 100 nM.

For `CN(C)C(=O)c1nc(N2CCN(C(=O)N3N=CC[C@H]3c3cc(F)cc(F)c3)CC2)ncc1F` [Compound 5, 2-(4-(5-(3,5-difluorophenyl)-4,5-dihydro-1H-pyrazole-1-carbonyl)piperazin-1-yl)-5-fluoro-N,N-dimethylpyrimidine-4-carboxamide], the EC50 lay in the range of 0.1 to 100 nM.

As to `COC1CN(C(=O)c2nc(N3CCN(C(=O)N4N=CC[C@H]4c4cncc(F)c4)CC3)ncc2Cl)C1` [Compound 64, (S)-(5-chloro-2-(4-(5-(5-fluoropyridin-3-yl)-4,5-dihydro-1H-pyrazole-1-carbonyl)piperazin-1-yl)pyrimidin-4-yl)(3-methoxyazetidin-1-yl)methanone], the EC50 fell in the range of 100 to 1000 nM.

For the compound `N#CCC1CN(C(=O)c2nc(N3CCN(C(=O)N4N=CC[C@H]4c4cc(F)cc(F)c4)CC3)ncc2F)C1` [Compound 58, (S)-2-(1-(2-(4-(5-(3,5-difluorophenyl)-4,5-dihydro-1H-pyrazole-1-carbonyl)piperazin-1-yl)-5-fluoropyrimidine-4-carbonyl)azetidin-3-yl)acetonitrile], the concentration giving a half-maximal response (EC50) fell in the range of 0.1 to 100 nM.

For the compound `O=C(c1nc(N2CCN(C(=O)N3N=CC[C@H]3c3cc(F)cc(F)c3)CC2)ncc1F)N1CC(CN2CCCC2)C1` [Compound 10, (5-(3,5-difluorophenyl)-4,5-dihydro-1H-pyrazol-1-yl)(4-(5-fluoro-4-(3-(pyrrolidin-1-ylmethyl)azetidine-1-carbonyl)pyrimidin-2-yl)piperazin-1-yl)methanone], the EC50 fell in the range of 0.1 to 100 nM.

For the compound `O=C(c1nc(N2CCN(C(=O)N3N=CC[C@H]3c3cc(F)cc(F)c3)CC2)ncc1F)N1CC2(COC2)C1` [Compound 14, (5-(3,5-difluorophenyl)-4,5-dihydro-1H-pyrazol-1-yl)(4-(5-fluoro-4-(2-oxa-6-azaspiro[3.3]heptane-6-carbonyl)pyrimidin-2-yl)piperazin-1-yl)methanone], the EC50 is 0.1 to 100 nM.
